Data from patent US11382897B2, “Therapeutic combination for treatment of cerebellar ataxia” (The Regents of the University of Michigan, priority 2017, dated 2022).

Legend:
[1] = test system: ATXN1[82Q] Purkinje neurons; assay: Whole-cell patch-clamp recordings: membrane potential and after-hyperpolarization (AHP); type: cell-based, mice
[2] = Water solubility (preparation of drinking water); type: physicochemical
Description: (§1) SKA-31 was dissolved in drinking water at 600 μM for all studies. […] For vehicle treatment, drinking water containing 0.05% β-(hydroxypropyl)-cyclodextrin, NaOH, and sucrose was used. Water bottles were changed twice weekly. Mice were treated with water bottles beginning at 28 days of age and maintained on water bottles for the duration of the experiment.

[3] = both, mouse, in vivo
Description: as §1

[4] = test system: ATXN1[82Q] Purkinje neurons; assay: Analysis of intrinsic dendritic excitability (dendritic calcium spikes); type: cell-based, mice
[5] = test system: non-firing ATXN1[82Q] Purkinje neurons; assay: Cell-attached recordings of Purkinje neuron spiking in acute cerebellar slices; type: cell-based, mice; conditions: 5 weeks of age, chlorzoxazone 50 μM, baclofen 10 μM, SKA-31 10 μM, 1-EBIO 100 μM
SCA patients = conditions: human, in vivo

Compound | duration of the AHP ([1]; SKA-31 10 μM, chlorzoxazone 50 μM and baclofen 10 μM) | water solubility [2] | brain level [3] [nM] | plasma level [3] [nM] | dendritic (hyper)excitability: threshold of injected current to elicit dendritic calcium spikes [4] | restoration of repetitive (tonic) spiking in non-firing Purkinje neurons [5] | membrane potential of depolarized Purkinje neurons after the agent [1] [mV] | Other comments: tolerability (SCA patients) | effect of baclofen on dendritic excitability in the presence of TEA ([4]; TEA 1 mM, baclofen 2 μM) | effect of baclofen on dendritic excitability in the presence of U73122 ([4]; U73122 10 μM in recording pipette (phospholipase C inhibitor), baclofen 2 μM) | effect of baclofen on dendritic excitability in the presence of barium ([4]; barium 500 μM, baclofen 2 μM) | effect of baclofen on dendritic excitability with cesium in the recording pipette ([4]; cesium chloride 140 mM in the recording pipette, baclofen 2 μM)
Nc1nc2c(ccc3ccccc32)s1 [SKA-31, Naphtho[1,2-d]thiazol-2-ylamine] | extended the duration of the AHP | not easily water-soluble | 1830 ± 1300 | 39.39 ± 8.05 | does not reduce dendritic hyperexcitability | – | – | – | – | – | – | –
NCC(CC(=O)O)c1ccc(Cl)cc1 (stereo not drawn) [baclofen, Baclofen] | – | – | 377.35 ± 58.50 | 3060 ± 510 | reduce dendritic hyperexcitability | Neither chlorzoxazone alone nor baclofen alone consistently restores spiking | −52 | Could not tolerate; | does not block the effect of baclofen | did not prevent the effect of baclofen on dendritic excitability | did not prevent the effect of baclofen | prevents the effect of baclofen
